Legend:
[1] = test system: H292 (NSCLC) human tumor xenograft; assay: Treatment beyond progression (TBP), H292 xenograft model; format: in vivo, mice
Protocol: Anti-tumor efficacy was evaluated using mouse xenograft tumor models derived from GEO and H292 cells. Female athymic nude nu/nu CD-1 mice (6-8 wks, 22-29 g) were obtained from Charles River Laboratories (Wilmington, Mass.). Animals were allowed to acclimate for a minimum of one week prior to initiation of a study. Throughout the studies, animals were allowed sterile rodent chow and water ad libitum, and immunocompromised animals were maintained under specific pathogen free conditions. […] Tumor cells were harvested from cell culture flasks during exponential cell growth, washed twice with sterile PBS, counted and resuspended in PBS to a suitable concentration before s.c. implantation on the right flank of female nu/nu CD-1 mice. Tumors were established to 200+/−50 mm^3 in size before randomization into treatment groups of 8 mice each. Body weights were determined twice weekly along with tumor volume {V=[length×(width)^2]/2} measurements using Vernier calipers during the study. Tumor growth inhibition (% TGI) was determined by the following formula: % TGI={1−[(Tt/T0)/(Ct/C0)]/1-[C0/Ct]}×100. Tt is tumor volume of treated at time t; T0 is tumor volume of treated at time 0; Ct is tumor volume of control at time t; and C0 is tumor volume of control at time 0. […] Furthermore, we evaluated the effect of drug treatment on tumor growth delay (GD or T-C value), defined as the difference in time (days) required for the treated tumors (T) to reach 400% of the initial tumor volume compared with those of the control group (C). […] At the time of tumor progression on single agent erlotinib treatment mice were randomized into additional study groups of 8 mice each. Individual tumor volumes were calculated, as stated above, for all mice throughout the study and the time in days until each mouse doubled its tumor volume from the time of re-randomization was determined by linear regression analysis of the entire data set. Statistical evaluation of the data was determined by Kaplan-Meier Survival analysis.
In two separate experiments (FIGS. 9-11 and FIGS. 13-15), NCI-H292 cells were harvested from cell culture flasks during exponential cell growth, washed twice with sterile PBS, counted and resuspended in PBS to a suitable concentration before s.c. implantation on the right flank of female nu/nu CD-1 mice. Tumors were established to 200+/−50 mm^3 in size before randomization into vehicle control or erlotinib treatment groups.

[2] = test system: GEO (CRC) human tumor xenograft; assay: Treatment beyond progression (TBP), GEO xenograft model; format: in vivo, mice; conditions: after progression on 18 days erlotinib, erlotinib maintenance 100 mg/kg per day, or with OSI-906 15 mg/kg per day added, FIG. 4
Protocol: The H292 (NSCLC) and GEO (CRC) human tumor xenograft models were used to evaluate the efficacy of EGFR inhibitor (erlotinib) maintenance therapy with and without the addition of IGF-1R inhibitor (OSI-906) therapy following response and subsequent progression on erlotinib monotherapy.
Anti-tumor efficacy was evaluated using mouse xenograft tumor models derived from GEO and H292 cells. Female athymic nude nu/nu CD-1 mice (6-8 wks, 22-29 g) were obtained from Charles River Laboratories (Wilmington, Mass.). Animals were allowed to acclimate for a minimum of one week prior to initiation of a study. […] Tumor cells were harvested from cell culture flasks during exponential cell growth, washed twice with sterile PBS, counted and resuspended in PBS to a suitable concentration before s.c. implantation on the right flank of female nu/nu CD-1 mice. […] Body weights were determined twice weekly along with tumor volume {V=[length×(width)^2]/2} measurements using Vernier calipers during the study. Tumor growth inhibition (% TGI) was determined by the following formula: % TGI={1−[(Tt/T0)/(Ct/C0)]/1-[C0/Ct]}×100. […] Furthermore, we evaluated the effect of drug treatment on tumor growth delay (GD or T-C value), defined as the difference in time (days) required for the treated tumors (T) to reach 400% of the initial tumor volume compared with those of the control group (C). […]

[3] = test system: H292 (NSCLC) human tumor xenograft; assay: Frontline combination treatment, H292 xenograft model; format: in vivo, mice; conditions: by 100 days
Protocol: Anti-tumor efficacy was evaluated using mouse xenograft tumor models derived from GEO and H292 cells. Female athymic nude nu/nu CD-1 mice (6-8 wks, 22-29 g) were obtained from Charles River Laboratories (Wilmington, Mass.). Animals were allowed to acclimate for a minimum of one week prior to initiation of a study. Throughout the studies, animals were allowed sterile rodent chow and water ad libitum, and immunocompromised animals were maintained under specific pathogen free conditions. […] Tumor cells were harvested from cell culture flasks during exponential cell growth, washed twice with sterile PBS, counted and resuspended in PBS to a suitable concentration before s.c. implantation on the right flank of female nu/nu CD-1 mice. […] Body weights were determined twice weekly along with tumor volume {V=[length×(width)^2]/2} measurements using Vernier calipers during the study. Tumor growth inhibition (% TGI) was determined by the following formula: % TGI={1−[(Tt/T0)/(Ct/C0)]/1-[C0/Ct]}×100. […] Furthermore, we evaluated the effect of drug treatment on tumor growth delay (GD or T-C value), defined as the difference in time (days) required for the treated tumors (T) to reach 400% of the initial tumor volume compared with those of the control group (C). […] Statistical evaluation of the data was determined by Kaplan-Meier Survival analysis.

pIGF-1R [4] = assay: RTK array analysis, GEO model; format: in vivo, human; conditions: erlotinib 100 mg/kg per day for eighteen days, all treated tumors, FIG. 1
Protocol: (§1) In untreated GEO tumors and tumors treated with erlotinib (100 mg/kg per day) for eighteen days, the levels of pEGFR, pIGF-1R, and pIR were measured in terms of median pixel density, as shown in FIG. 1.

pIR [5] = assay: RTK array analysis, GEO model; format: in vivo, human; conditions: erlotinib 100 mg/kg per day for eighteen days, all treated tumors, FIG. 1
Protocol: as §1

pIGF-1R [6] = assay: RTK array analysis, H292 model; format: in vivo, human; conditions: H292 tumors, erlotinib 100 mg/kg per day eighteen days, progressor tumors vs untreated or non-progressor; FIG. 5
Protocol: (§2) In untreated H292 tumors and tumors treated with erlotinib (100 mg/kg per day) for eighteen days, the levels of pIGF-1R and pIR were measured in terms of pixel density normalized to phosphotyrosine loading control, as shown in FIG. 5. Tumors that initially responded and then progressed (progressor) show upregulation of both pIGF-1R and pIR as compared to untreated tumors or tumors that continue to respond to erlotinib treatment (non-progressor).

pIR [7] = assay: RTK array analysis, H292 model; format: in vivo, human; conditions: H292 tumors, erlotinib 100 mg/kg per day eighteen days, progressor tumors vs untreated or non-progressor; FIG. 5
Protocol: as §2

Akt [8] = assay: GEO model Western blot analysis; format: in vivo, human; conditions: erlotinib 100 mg/kg per day eighteen days, FIG. 2
Protocol: (§3) In untreated GEO tumors and tumors treated with erlotinib (100 mg/kg per day) for eighteen days, the levels of total and phosphorylated Akt and Erk were measured and quantitated in terms of the ratio of phosphor to total protein in each sample and then plotted as compared to levels observed in vehicle control treated tumors (assumed to be 100%).

Erk [9] = assay: GEO model Western blot analysis; format: in vivo, human; conditions: erlotinib 100 mg/kg per day eighteen days, FIG. 2
Protocol: as §3

Akt [10] = assay: H292 model Western blot analysis; format: in vivo, human; conditions: H292, erlotinib 100 mg/kg per day eighteen days, FIG. 6
Protocol: as §3, with “H292” for “GEO”

Erk [11] = assay: H292 model Western blot analysis; format: in vivo, human; conditions: H292, erlotinib 100 mg/kg per day eighteen days, FIG. 6
Protocol: as §3, with “H292” for “GEO”

[12] = OSI-906 50 mg/kg per day after taking off erlotinib
[13] = tumors that do not progress on treatment
[14] = tumors that respond and then progress on treatment

| SMILES | time to tumor doubling, switching to OSI-906 single agent versus maintaining erlotinib single agent [1, 12] | time to two tumor doublings, switching to OSI-906 single agent versus maintaining erlotinib single agent [1, 12] | median time to tumor doubling following the re-sorting [2] | median time to one doubling ([1]; first trial, FIG. 10, Kaplan-Meier, after 28 days erlotinib 100 mg/kg per day, combination = erlotinib + OSI-906 15 or 10 mg/kg) | median time to two doublings ([1]; first trial, FIG. 11, Kaplan-Meier, combination = erlotinib + OSI-906 15 or 10 mg/kg) | median time to one doubling ([1]; second trial, FIG. 14, Kaplan-Meier) | median time to two doublings ([1]; second trial, FIG. 15, Kaplan-Meier) | mice that doubled their tumor volumes twice [3] | level of pIGF-1R (median pixel density) compared to untreated tumors (pIGF-1R [4]) | level of pIR (median pixel density) compared to untreated tumors (pIR [5]) | level of pIGF-1R (pixel density normalized to phosphotyrosine loading control) (pIGF-1R [6]) | level of pIR (pixel density normalized to phosphotyrosine loading control) (pIR [7]) | phospho to total Akt versus vehicle control (Akt [8]; [13]) | phospho to total Akt versus vehicle control (Akt [8]; [14]) | phospho to total Erk versus vehicle control (Erk [9]; [13]) | phospho to total Erk versus vehicle control (Erk [9]; [14]) | phospho to total Akt versus vehicle control (Akt [10]; [13]) | phospho to total Akt versus vehicle control (Akt [10]; [14]) | phospho to total Erk versus vehicle control (Erk [11]; [13]) | phospho to total Erk versus vehicle control (Erk [11]; [14]) |
| --- | --- | --- | --- | --- | --- | --- | --- | --- | --- | --- | --- | --- | --- | --- | --- | --- | --- | --- | --- | --- |
| C[C@]1(O)C[C@@H](c2nc(-c3ccc4ccc(-c5ccccc5)nc4c3)c3c(N)nccn32)C1 [OSI-906, cis-3-[8-amino-1-(2-phenyl-quinolin-7-yl)-imidazo[1,5-a]pyrazin-3-yl]-1-methyl-cyclobutanol] | no statistical difference | no statistical difference | – | – | – | – | – | – | – | – | – | – | – | – | – | – | – | – | – | – |
| C#Cc1cccc(Nc2ncnc3cc(OCCOC)c(OCCOC)cc23)c1 [erlotinib, [6,7-bis(2-methoxyethoxy)-4-quinazolin-4-yl]-(3-ethynylphenyl)amine] | – | – | about 28 days | 20.9 days | 41.5 days | 20.9 days | 45.8 days | 7 of 8 | upregulation | upregulation | upregulation | upregulation | continued inhibition | no longer inhibiting | continued inhibition | no longer inhibiting | continued inhibition | no longer inhibiting | continued inhibition | no longer inhibiting |

From patent publication US20120064072A1, “Combination Cancer Therapy Comprising Administration of an EGFR Inhibitor and an IGF-1R Inhibitor” (priority 2009, published 2012)
